The values below come from patent US20070161611A1, “POLYCYCLIC PHENOLIC COMPOUNDS AND USE IN TREATING VIRAL INFECTIONS” (priority 2005, published 2007).

Like-named read-outs stand apart in the source and are kept apart here.

The test system of one series is BVDV-NADL. Put plainly: Protection of MDBK cells from BVDV-induced cytopathicity (MTS/PMS CPE reduction assay). Type of series: cell-based. As to conditions: Bovine viral diarrhea virus isolates and strains. The method, then:
Cell proliferation was monitored using a non-radioactive MTS/PMS assay (MTS: 3-(4,5-dimethylthiazol-2-yl)-5-(3-carboxymethoxy phenyl)-2-(4-sulfophenyl)-2H-tetrazolium (Promega, Madison, Wis.)); (PMS: phenazine methosulfate (Sigma Aldrich, St. Louis, Mo.)). MDBK cells were seeded into 96-well plates at a density of approximately 2×10^4 cells per well. The cultures were incubated 3-24 hours to permit attachment of the cells to the plates prior to infection and addition of compounds. The appropriate PFU of BVDV-NADL were added to each well to achieve the desired MOI (<1 or >0.001); the cells were exposed to the virus diluted at the appropriate concentration in phosphate buffered saline (PBS) containing 1% horse serum (HS) for 1 to 2 hours. The virus was then removed and the cells were washed with PBS containing 1% HS. The test compounds were serially diluted in cell growth media with 2% HS and added to the cells. The plates were incubated at 37° C. in the presence of 5% CO2 for 3-4 days. Uninfected cells and infected, untreated cells (without compound) were used as additional controls. The final volume was 100 μl per well. After the 3-4 days of incubation a volume of 20 μL of the combined MTS/PMS solution was added into each well of the 96-well assay plate containing 100 μL of cells in culture medium to obtain final concentrations of 333 μg/ml MTS 5 and 25 μM PMS. A 96-well microtiter spectrophotometer plate reader was used to measure the absorbance at 490 nm after incubation of the 96-well plate for 1 to 4 hours at 37° C. in a humidified, 5% CO2 atmosphere. The mean absorbance in each set of triplicate wells was determined. Antiviral activity was measured as MTS conversion relative to the differential between the conversion for cell (non-infected) and viral (non-drug-treated) controls. The cytopathic effect (CPE) reduction for each concentration of the tested compound, which correlated with antiviral activity, was calculated as follows. % CPE reduction=[(D−ND)/(NI−ND)]×100, where D (drug-treated)=the absorbance of drug-treated cells; ND (non drug-treated)=the absorbance of untreated infected cells; and NI (non-infected)=the absorbance of non-infected cells. EC50 represents the concentration of drug that protects 50% of the cells from BVDV induced cytotoxicity (50% CPE reduction). CC50 equals the concentration that affects the viability of 50% of the MDBK cells.
The compounds were combined at fixed molar ratios and serially diluted 2-fold in cell growth medium to examine a range of 6 fixed ratio combinations including those having about an equipotent antiviral dose to a combination in which one test compound was used at a sub-optimal level (e.g., sub-therapeutic).

The nature of series [1]: in vitro. The settings on record: human.
Another series relates to HIV-1RF. Put plainly: Anti-HIV-1 activity in CEM-SS cells (inhibition of HIV-1 induced cytotoxicity). The settings on record: Human immunodeficiency virus 1, CEM-SS; for EC50: read-out: CEM-SS/HIV-1RF EC50.
The subject of series [2] is HCV sub-genomic replicon genotype 1b. Put plainly: HCV sub-genomic replicon assay in AVA5 cells (HCV RNA dot blot hybridization). The settings on record: for SI (Selectivity Index): HCV replicon genotype 1b; for EC50: Hepatitis C virus, AVA5 cells, once daily for three days, HCV RNA 24 h after last dose. Type of series: cell-based, Hepatitis C Virus.
Series [3] in a line: Toxicity in AVA5 replicon cells (neutral red dye uptake). As to conditions: human, AVA5 cells (HCV RNA-replicating, Huh7-derived). The procedure: The antiviral activity of test compounds were assayed in the stably HCV RNA-replicating cell line, AVA5, derived by transfection of the human hepatoblastoma cell line, Huh7 (Blight, et al., 2000, Science 290: 1972). […] Intracellular HCV RNA levels and cytotoxicity were assessed 24 hours after the last dose of compound.
Assays were conducted using 4-5 doses of test compound. […] HCV RNA levels were assessed 24 hours after the last dose of compound using a dot blot hybridization assay. Both HCV and β-actin RNA levels in triplicate treated cultures were expressed as a percentage of the mean levels of RNA detected in untreated cultures (6 total). β-Actin RNA levels were used both as a measure of toxicity, and to normalize the amount of cellular RNA in each sample. Toxicity analyses were performed on separate plates from those used for the antiviral assays. Cells for the toxicity analyses were cultured and treated with test compounds with the same schedule and under identical culture conditions as used for the antiviral evaluations. Uptake of neutral red dye was used to determine the relative level of toxicity 24 hours following the last treatment. The absorbance of internalized dye at 510 nm (A510) was used for the quantitative analysis. Values in test cultures were compared to 9 cultures of untreated cells maintained on the same plate as the test cultures.

In the next series the test system is CEM-SS cells. Put plainly: Cytotoxicity in CEM-SS cells. As to conditions: at 300 μM.
The subject of the next series is BVDV strain NADL. Put plainly: Inhibition of viral release in BVDV-infected MDBK cells (plaque titration of supernatant). Type of series: cell-based, Bovine Viral Diarrhea virus. The settings on record: 24 h treatment. The procedure: (§1) Madin-Darby Bovine Kidney Cells (MDBK) (American Type Culture Collection (ATCC) No. CCL-22, Manassas, Va) were seeded into 96-well plates at a density of approximately 2×10^4 cells per well. The cell cultures were incubated for 3-24 hours to allow for attachment of cells to the culture plates prior to infection and addition of compounds. BVDV strain NADL (ATCC No. VR-534) plaque forming units (PFU) were added to each well to achieve a multiplicity of infection (MOI) ranging from about 1 or about 0.001, and allowed to remain in contact with the cultured cells for 1 to 2 hours. The virus was then removed and the cells were washed with growth medium (e.g., Dulbecco's Modified Eagles Medium (DMEM)) containing 5% horse serum (HS), or with phosphate buffered saline (PBS), 1% HS, and 1 mM MgCl2. The test compounds, dissolved in cell growth media with 2% HS, were then added to the BVDV-infected cells or uninfected cells (cytotoxicity determination) at various concentrations. The plates were incubated at 37° C., 5% CO2 for 24 hours (i.e., about one cycle of BVDV replication). The plates were then centrifuged at low speed and the supernatant was serially diluted for use in infecting a new monolayer of cells in 12-well plates. […] The virus plaques formed in MDBK cell cultures were quantified by a manual count and a titer was determined.

The nature of series [4]: Cytotoxicity in uninfected MDBK cells after 24 h treatment (OD490). As to conditions: bovine, compared to control, read-out: % Cytotoxicity of Compound 20 (1 μM). Type of series: cell-based, bovine. The method, then: as §1
For a further series, the system named is MDBK cells. The series is described as above. It counts as cell-based, bovine. As to conditions: untreated control OD490 1.2. The method, then: as §1
The nature of series [5]: in vitro. It counts as cell-based. As to conditions: bovine. The procedure:
Cell proliferation was monitored using a non-radioactive MTS/PMS assay (MTS: 3-(4,5-dimethylthiazol-2-yl)-5-(3-carboxymethoxy phenyl)-2-(4-sulfophenyl)-2H-tetrazolium (Promega, Madison, Wis.)); (PMS: phenazine methosulfate (Sigma Aldrich, St. Louis, Mo.)). MDBK cells were seeded into 96-well plates at a density of approximately 2×10^4 cells per well. The cultures were incubated 3-24 hours to permit attachment of the cells to the plates prior to infection and addition of compounds. […] A 96-well microtiter spectrophotometer plate reader was used to measure the absorbance at 490 nm after incubation of the 96-well plate for 1 to 4 hours at 37° C. in a humidified, 5% CO2 atmosphere. The mean absorbance in each set of triplicate wells was determined. Antiviral activity was measured as MTS conversion relative to the differential between the conversion for cell (non-infected) and viral (non-drug-treated) controls. The cytopathic effect (CPE) reduction for each concentration of the tested compound, which correlated with antiviral activity, was calculated as follows. % CPE reduction=[(D−ND)/(NI−ND)]×100, where D (drug-treated)=the absorbance of drug-treated cells; ND (non drug-treated)=the absorbance of untreated infected cells; and NI (non-infected)=the absorbance of non-infected cells. […]

In series [6] the test system is non-cytopathic BVDV Pe515. Put plainly: Non-cytopathic BVDV genomic RNA reduction in MDBK cells (qRT-PCR). It counts as cell-based. The settings on record: Bovine viral diarrhea virus isolates and strains, 72 h, MOI 0.001, three day treatment, FIG. 1, read-out: EC50 of ncp BVDV genomic replication. The method, then: MDBK cells were seeded into 6-or 96-well plates at a density of approximately 2×10^4 cells per well. The cultures were incubated 3-24 hours to permit attachment of the cells to the plates prior to infection and addition of compounds. The appropriate number of non-cytopathic BVDV Pe515 (ncp BVDV) PFU were added to each well to achieve the desired MOI (0.001); the cells were contacted with the virus diluted at the appropriate concentration in PBS containing 1% HS and 1 mM MgCl2 for 1 to 2 hours. The test compounds dissolved in cell growth media with 2% HS were added to the cells at varying concentrations. The plates were incubated at 37° C. in the presence of 5% CO2 for 3-4 days. […] Real-time quantitation was done using the Quantitative One Step Reverse Transcriptase (RT) Polymerase Chain Reaction (qRT-PCR) MasterMix Plus for SYBR® Green I (Eurogentec, San Diego, calif.). […] The following primers were used for the one step RT-PCR SYBR quantitation assay: forward primer 5′-[…]-3′ (SEQ ID NO:1) and reverse primer 5′-[…]-3′ (SEQ ID NO:2). […] Well-to-well variations in background fluorescence were corrected for by use of a ROX-labeled passive reference, included as part of the Eurogentec One Step qRT-PCR Master Mix for each sample. Amplification curves were analyzed by using empirically established cycle threshold and baseline settings for the assay. […]

Where [7] appears, read: MOI of 0.01, monotherapy run in parallel to combination studies, read-out: EC50 (monotherapy).
The mark [8] stands for this setting: MOI = 0.05, 3-4 days, read-out: EC50.

`C[C@]12CCC3c4cc(C56CC7CC(CC(C7)C5)C6)c(O)cc4CCC3C1CCC2=O` (stereo partly shown) [Compound 2]: the EC50 in the series on BVDV-NADL (setting [7]) amounted to 230 nM; with HIV-1RF it was 19.7 µM. In addition, the CC50 in “in vitro [1]” is over 100 µM.

In the case of `C[C@@]1(O)[C@H](O)[C@@H](CO)O[C@H]1n1ccc(N)nc1=O` [NM107, 2′-C-methyl cytidine, reference compound], in the series with BVDV-NADL (setting [7]), the EC50 came out at 990 nM.

As for `C[C@]12CC[C@@H]3c4ccc(OS(=O)(=O)O)cc4CC[C@H]3[C@@H]1CC[C@H]2O` [Compound 16, 17(α)-estradiol-3-sulfate sodium], in series [2], the “SI (Selectivity Index)” value is given as over 196 and the EC50 stood at 510 nM. Further, the CC50 at 3 days in series [3] is over 100 µM. The molecule further gave a CC50 in the series “in vitro [1]” (CEM-SS cells) of over 300 µM. Also, the “cytotoxicity shown by the compound” value in the series with CEM-SS cells is on record as “no cytotoxicity”. Moreover, in the series on HIV-1RF, the EC50 is over 300 µM. Further, in the series with HIV-1RF (read-out: inhibition of HIV-1 induced cytotoxicity in CEM-SS cells), the inhibition at 300 µM amounted to 20%.

In the series “in vitro [1]”, `CO/N=C1\CC[C@H]2[C@@H]3CCc4cc(O)c(C56CC7CC(CC(C7)C5)C6)cc4[C@H]3CC[C@]12C` [Compound 5] registered a CC50 of 17.3 µM. Moreover, the EC50 in the series with HIV-1RF was 5.8 µM.

Regarding `C[C@]12CC[C@@H]3c4cc(C56CC7CC(CC(C7)C5)C6)c(O)cc4CC[C@H]3[C@@H]1CC[C@@H]2O` [Compound 20, 17(β)-2-(1-adamantyl)-estra-1,3,5(10)-triene-3,17-diol], the “Viral titer in presence of 1 μM of Compound 20” value in the series on BVDV strain NADL (untreated control 7.0 × 10^5 PFU/mL) was 2.2 × 10^5 PFU/mL. The inhibition at 1 µM with BVDV strain NADL (Bovine viral diarrhea virus isolates and strains, MDBK, compared to control, read-out: % Inhibition of Viral Release by Compound 20 at 1 μM) amounted to 69%. The cytotoxicity at 24 h, 1 µM in series [4] stood at 0%. Moreover, the “OD490 - 1 μM Compound 20” value in the series on MDBK cells came out at 1.2. For the same molecule, the EC50 with BVDV-NADL (MOI 0.01, read-out: EC50) was 340 ± 20 nM; with BVDV-NADL (MOI 0.02, read-out: EC50), 510 nM; in the series on BVDV-NADL (MOI 0.03, read-out: EC50), 460 nM; in the series on BVDV-NADL (setting [8]) it was 800 ± 220 nM; in [6], about 150 nM; in series [2] it was 43 nM. Further, in the series on HIV-1RF, the EC50 was 8.6 µM. Further, the CC50 in the series “in vitro [5]” was 40.1 ± 25.1 µM; in “in vitro [1]”, 14.3 µM. Also, in [2], the “SI (Selectivity Index)” value is listed as 188. The molecule also gave a CC50 at 3 days in [3] of 8.1 µM.

In the case of `CCCC(=O)O[C@H]1CN2CC[C@H](O)[C@@H]2[C@@H](O)[C@@H]1O` [Celgosivir, [1S-(1α,6β,7α,8β,8αβ)]-octahydro-1,6,7,8-indolizinetetrol 6-butanoate, reference compound], the EC50 with BVDV-NADL (setting [7]) worked out at 2200 nM.

On to `C[C@]12CC[C@@H]3c4cc(C56CC7CC(CC(C7)C5)C6)c(O)cc4CC[C@H]3[C@@H]1CC/C2=N\N` [Compound 4], for which the EC50 with BVDV-NADL (setting [8]) came out at 3990 ± 990 nM. In the series “in vitro [5]”, this molecule displayed a CC50 of 34.5 ± 23.2 µM. In series [2], the “SI (Selectivity Index)” value was 353 and the EC50 stood at 68 nM. This molecule also registered a CC50 at 3 days in [3] of 24 µM.
